Test results: the supplement of paper PMC10307832

Compound: COc1nc(N)nc2c1ncn2[C@@H]1O[C@H](CO)[C@@H](O)[C@@H]1O [Nelarabine]
Experiment: relative viability (nuclei count vs DMSO), 5 days (fraction); higher = more cells survive
Conditions: 0.01 µM
Procedure, shortened: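 Acceptance criteria were a control CV below 25% and at least one doubling per plate. Lung cancer cell lines in 1536-well plates got five library-drug doses (not always all listed) √10 apart by pinning and were left 5 days with no medium change. Viability divides treated-well nuclei by vehicle-well nuclei and is the median across plates. Nuclei were counted by MetaXpress from 4× Hoechst images.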

First: 201T
Second: A549
The relative viability of the first is lower: 1.03 for the first, 1.19 for the second.

Going from A-427 to ABC-1, the relative viability rises from 1.06 to 1.1.

First: BEN
Second: CAL-12T
The relative viability of the first is lower: 1.05 for the first, 1.15 for the second.

Compared with COR-L23, COR-L 105 is lower in relative viability: 1.49 for the first, 1.01 for the second.

Compared with Calu-6, ChaGo-K-1 is lower in relative viability: 1.19 for the first, 1.05 for the second.

Going from EBC-1 to EKVX, the relative viability falls from 1.19 to 1.09.

First: EPLC-272H
Second: H3255
The relative viability of the first is higher: 1.01 for the first, 0.998 for the second.

Going from HARA to HCC-15, the relative viability falls from 1.2 to 1.16.

Going from HCC-44 to HCC-78, the relative viability rises from 1 to 1.01.

Going from HCC-366 to HCC-827, the relative viability falls from 1.28 to 1.03.

Going from HOP-62 to IA-LM, the relative viability rises from 1.02 to 1.1.

Compared with LC-2-ad, LCLC-97TM1 is lower in relative viability: 1.14 for the first, 0.939 for the second.

First: LCLC-103H
Second: LK-2
The relative viability of the first is lower: 1.15 for the first, 1.28 for the second.

First: LOU-NH91
Second: LU99A
The relative viability of the first is lower: 0.948 for the first, 0.965 for the second.

First: LXF-289
Second: NCI-H23
The relative viability of the first is lower: 1.11 for the first, 1.22 for the second.

Compared with NCI-H322M, NCI-H358 is higher in relative viability: 0.963 for the first, 1.1 for the second.

First: NCI-H441
Second: NCI-H460
The relative viability of the first is higher: 1.31 for the first, 1.24 for the second.

Compared with NCI-H522, NCI-H1623 is lower in relative viability: 1.01 for the first, 0.869 for the second.

First: NCI-H1648
Second: NCI-H2342
The relative viability of the first is lower: 0.713 for the first, 1.07 for the second.

SW 900 gave a relative viability of 0.998.

Same assay, conditions: 0.03162 µM

Compared with 201T, A549 is higher in relative viability: 0.907 for the first, 1.04 for the second.

Compared with A-427, ABC-1 is lower in relative viability: 1.08 for the first, 0.911 for the second.

Compared with BEN, CAL-12T is lower in relative viability: 1.05 for the first, 1.02 for the second.

First: COR-L23
Second: COR-L 105
The relative viability of the first is higher: 1.21 for the first, 1.12 for the second.

First: Calu-6
Second: ChaGo-K-1
The relative viability of the first is higher: 1.13 for the first, 0.912 for the second.

Going from EBC-1 to EKVX, the relative viability falls from 1.14 to 0.898.

Compared with EPLC-272H, H3255 is higher in relative viability: 1 for the first, 1.08 for the second.

Compared with HARA, HCC-15 is lower in relative viability: 1.14 for the first, 0.978 for the second.

Compared with HCC-44, HCC-78 is lower in relative viability: 0.949 for the first, 0.942 for the second.

Going from HCC-366 to HCC-827, the relative viability rises from 0.865 to 0.93.

First: HOP-62
Second: IA-LM
The relative viability of the first is lower: 1.02 for the first, 1.12 for the second.

Going from LC-2-ad to LCLC-103H, the relative viability falls from 1.05 to 1.01.

Going from LOU-NH91 to LU99A, the relative viability rises from 0.944 to 0.952.

Going from LXF-289 to NCI-H23, the relative viability falls from 1.04 to 0.911.

First: NCI-H322M
Second: NCI-H358
The relative viability of the first is lower: 0.896 for the first, 0.928 for the second.

First: NCI-H441
Second: NCI-H460
The relative viability of the first is higher: 1.11 for the first, 1.09 for the second.

Going from NCI-H522 to NCI-H1623, the relative viability rises from 0.949 to 1.12.

Compared with NCI-H1648, NCI-H2342 is lower in relative viability: 0.929 for the first, 0.833 for the second.

In the case of SW 900, the relative viability is reported as 0.897.

Same assay, conditions: 0.1 µM

Compared with 201T, A549 is lower in relative viability: 1.04 for the first, 1.02 for the second.

Going from A-427 to ABC-1, the relative viability falls from 1.04 to 0.988.

Going from BEN to CAL-12T, the relative viability falls from 1.02 to 0.969.

Compared with COR-L23, COR-L 105 is higher in relative viability: 0.96 for the first, 0.971 for the second.

Going from Calu-6 to ChaGo-K-1, the relative viability falls from 1.04 to 0.962.

Going from EBC-1 to EKVX, the relative viability falls from 1.05 to 0.857.

Compared with EPLC-272H, H3255 is higher in relative viability: 0.878 for the first, 0.987 for the second.

First: HARA
Second: HCC-15
The relative viability of the first is lower: 0.97 for the first, 1.06 for the second.

First: HCC-44
Second: HCC-366
The relative viability of the first is higher: 0.997 for the first, 0.982 for the second.

First: HCC-827
Second: HOP-62
The relative viability of the first is lower: 0.97 for the first, 1.06 for the second.

First: IA-LM
Second: LC-2-ad
The relative viability of the first is higher: 1.06 for the first, 0.984 for the second.

Going from LCLC-97TM1 to LCLC-103H, the relative viability rises from 0.971 to 1.03.

Compared with LK-2, LOU-NH91 is lower in relative viability: 0.978 for the first, 0.935 for the second.

Going from LU99A to LXF-289, the relative viability rises from 0.956 to 1.01.

First: NCI-H23
Second: NCI-H322M
The relative viability of the first is higher: 1.01 for the first, 0.884 for the second.

Compared with NCI-H358, NCI-H441 is higher in relative viability: 0.804 for the first, 0.987 for the second.

Going from NCI-H460 to NCI-H522, the relative viability rises from 1.01 to 1.09.

Going from NCI-H1623 to NCI-H1648, the relative viability falls from 0.965 to 0.776.

Compared with NCI-H2342, SW 900 is higher in relative viability: 1.01 for the first, 1.06 for the second.

Same assay, conditions: 0.3162 µM

First: 201T
Second: A549
The relative viability of the first is higher: 1.02 for the first, 1 for the second.

First: A-427
Second: ABC-1
The relative viability of the first is lower: 1.05 for the first, 1.11 for the second.

Compared with BEN, CAL-12T is lower in relative viability: 1.19 for the first, 0.99 for the second.

Going from COR-L23 to COR-L 105, the relative viability falls from 1.06 to 0.842.

First: Calu-6
Second: ChaGo-K-1
The relative viability of the first is higher: 1.1 for the first, 0.964 for the second.

Going from EBC-1 to EKVX, the relative viability rises from 1.01 to 1.09.

Going from EPLC-272H to H3255, the relative viability rises from 0.952 to 0.963.

Going from HARA to HCC-15, the relative viability rises from 1.06 to 1.07.

Compared with HCC-44, HCC-78 is higher in relative viability: 0.947 for the first, 1.05 for the second.

Compared with HCC-366, HCC-827 is lower in relative viability: 1.08 for the first, 0.828 for the second.

First: HOP-62
Second: IA-LM
The relative viability of the first is lower: 1.01 for the first, 1.07 for the second.

Compared with LC-2-ad, LCLC-97TM1 is lower in relative viability: 1.05 for the first, 0.95 for the second.

Going from LCLC-103H to LK-2, the relative viability rises from 1.03 to 1.09.

First: LOU-NH91
Second: LU99A
The relative viability of the first is higher: 1.02 for the first, 0.946 for the second.

First: LXF-289
Second: NCI-H23
The relative viability of the first is higher: 1.05 for the first, 0.987 for the second.

Going from NCI-H322M to NCI-H358, the relative viability rises from 0.937 to 1.06.

Going from NCI-H441 to NCI-H460, the relative viability rises from 1.14 to 1.2.

Going from NCI-H522 to NCI-H1623, the relative viability rises from 0.843 to 0.979.

First: NCI-H1648
Second: NCI-H2342
The relative viability of the first is higher: 1.11 for the first, 0.969 for the second.

SW 900 was tested, and the relative viability was 1.

Same assay, conditions: 1 µM

First: 201T
Second: A549
The relative viability of the first is higher: 0.999 for the first, 0.911 for the second.

Going from A-427 to ABC-1, the relative viability rises from 0.938 to 0.943.

With BEN the relative viability was 1.03.
